From ChEMBL document CHEMBL3885861, “Open TG-GATES”

Species on record: Rattus norvegicus
Test: Open TG-GATES - Regimen: Single
Format: toxicity, organism-based, Sprague-Dawley
Design: regimen Single, gender Male, age 6 weeks
Settings: in vivo, po, 0 mg/kg, route gavage, dose level Control; for APTT / Bas / Eos / Fbg / Hb / Ht / Lym / MCH / MCHC / MCV / Mono / Neu / PT / Plat / RBC / Ret / WBC: tissue Blood; for KIDNEY_L / KIDNEY_R / KIDNEY_TOTAL: tissue Kidney; for LIVER: tissue Liver; for A/G / ALP / ALT / AST / BUN / CRE / Ca / Cl / DBIL / GLC / IP / K / LDH / Na / PL / RALB / TBIL / TC / TG / TP / gamma-GTP: tissue Plasma

## CN/C(=N/CCSCc1nc[nH]c1C)NC#N [CIMETIDINE]
3 h
  TERMINAL_BW: 213.9 g
  APTT: 18.4 s
  Bas: 0%
  Eos: 1%
  Fbg: 217.6 mg/dL
  Hb: 12.7 g/dL
  Ht: 37.4%
  Lym: 75.4%
  MCH: 21.3 pg
  MCHC: 34%
  MCV: 62.5 fL
  Mono: 3.2%
  Neu: 19.2%
  PT: 12.6 s
  Plat: 139.7 x10_4/uL
  RBC: 598.4 x10_4/ul
  Ret: 7.9%
  WBC: 95.7 x10_2/uL
  KIDNEY_L: 1 g
  KIDNEY_R: 1 g
  KIDNEY_TOTAL: 2 g
  LIVER: 10.1 g
  A/G: 1.7
  ALP: 1080.4 IU/L
  ALT: 37.4 IU/L
  AST: 71.2 IU/L
  BUN: 12.4 mg/dL
  CRE: 0.3 mg/dL
  Ca: 10.8 mg/dL
  Cl: 102.6 meq/L
  DBIL: 0.072 mg/dL
  GLC: 189 mg/dL
  IP: 8.8 mg/dL
  K: 3.7 meq/L
  LDH: 134.2 IU/L
  Na: 140.8 meq/L
  PL: 147.6 mg/dL
  RALB: 3.4 g/dL
  TBIL: 0.1 mg/dL
  TC: 77.2 mg/dL
  TG: 65 mg/dL
  TP: 5.4 g/dL
  gamma-GTP: 1.4 IU/L
6 h
  TERMINAL_BW: 211.8 g
  APTT: 19.8 s
  Bas: 0%
  Eos: 1%
  Fbg: 219.2 mg/dL
  Hb: 13.2 g/dL
  Ht: 37.8%
  Lym: 75.6%
  MCH: 21.6 pg
  MCHC: 34.7%
  MCV: 62.2 fL
  Mono: 3.4%
  Neu: 18.8%
  PT: 12.8 s
  Plat: 127.2 x10_4/uL
  RBC: 607.6 x10_4/ul
  Ret: 8%
  WBC: 107.6 x10_2/uL
  KIDNEY_L: 1 g
  KIDNEY_R: 1 g
  KIDNEY_TOTAL: 1.9 g
  LIVER: 9.5 g
  A/G: 1.5
  ALP: 902.6 IU/L
  ALT: 38 IU/L
  AST: 70.2 IU/L
  BUN: 10.2 mg/dL
  CRE: 0.4 mg/dL
  Ca: 10.7 mg/dL
  Cl: 101.6 meq/L
  DBIL: 0.074 mg/dL
  GLC: 195.4 mg/dL
  IP: 9.7 mg/dL
  K: 3.8 meq/L
  LDH: 161.6 IU/L
  Na: 140.6 meq/L
  PL: 151.2 mg/dL
  RALB: 3.3 g/dL
  TBIL: 0.1 mg/dL
  TC: 81.8 mg/dL
  TG: 64.4 mg/dL
  TP: 5.5 g/dL
  gamma-GTP: 1.4 IU/L
9 h
  TERMINAL_BW: 206.6 g
  APTT: 17.6 s
  Bas: 0%
  Eos: 1%
  Fbg: 222.6 mg/dL
  Hb: 13.1 g/dL
  Ht: 37.9%
  Lym: 75.6%
  MCH: 21.5 pg
  MCHC: 34.6%
  MCV: 62 fL
  Mono: 3%
  Neu: 19.2%
  PT: 12.8 s
  Plat: 128 x10_4/uL
  RBC: 612 x10_4/ul
  Ret: 7.6%
  WBC: 93 x10_2/uL
  KIDNEY_L: 0.9 g
  KIDNEY_R: 0.9 g
  KIDNEY_TOTAL: 1.8 g
  LIVER: 8.7 g
  A/G: 1.6
  ALP: 842 IU/L
  ALT: 30 IU/L
  AST: 66.2 IU/L
  BUN: 12.6 mg/dL
  CRE: 0.3 mg/dL
  Ca: 10.5 mg/dL
  Cl: 102.2 meq/L
  DBIL: 0.074 mg/dL
  GLC: 189.2 mg/dL
  IP: 10 mg/dL
  K: 3.8 meq/L
  LDH: 120.4 IU/L
  Na: 140.8 meq/L
  PL: 139 mg/dL
  RALB: 3.3 g/dL
  TBIL: 0.1 mg/dL
  TC: 77.4 mg/dL
  TG: 47.8 mg/dL
  TP: 5.4 g/dL
  gamma-GTP: 1.4 IU/L
24 h
  TERMINAL_BW: 224.9 g
  APTT: 18.8 s
  Bas: 0.2%
  Eos: 0.8%
  Fbg: 218.6 mg/dL
  Hb: 13.5 g/dL
  Ht: 40%
  Lym: 81.4%
  MCH: 21.6 pg
  MCHC: 33.8%
  MCV: 63.8 fL
  Mono: 3%
  Neu: 13.2%
  PT: 12.1 s
  Plat: 130.4 x10_4/uL
  RBC: 627.6 x10_4/ul
  Ret: 7.2%
  WBC: 98.2 x10_2/uL
  KIDNEY_L: 1 g
  KIDNEY_R: 1 g
  KIDNEY_TOTAL: 2 g
  LIVER: 11 g
  A/G: 1.6
  ALP: 959.8 IU/L
  ALT: 36.8 IU/L
  AST: 64 IU/L
  BUN: 15.6 mg/dL
  CRE: 0.4 mg/dL
  Ca: 10.9 mg/dL
  Cl: 101.6 meq/L
  DBIL: 0.1 mg/dL
  GLC: 223.8 mg/dL
  IP: 7.7 mg/dL
  K: 4 meq/L
  LDH: 147.6 IU/L
  Na: 140.2 meq/L
  PL: 158.6 mg/dL
  RALB: 3.5 g/dL
  TBIL: 0.2 mg/dL
  TC: 79.8 mg/dL
  TG: 118.8 mg/dL
  TP: 5.6 g/dL
  gamma-GTP: 1.8 IU/L
